Measured values taken from ChEMBL document CHEMBL1201862, “PubChem BioAssay data set” (2004).
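Protocol summary: plate cells (96-well), add compound at 5 concentrations, incubate 48 h, interpolate endpoints linearly. GI50 is the concentration that inhibits growth by half.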 Active and inactive are the calls of the source. No stated cut-off is given here; in the data, active = GI50 up to about 1.1 µM and inactive = higher.

Columns and labels:
Test in all cases: DTP human tumour cell line panel, 48 h
[1] = test system: A498
[2] = test system: ACHN
[3] = test system: CAKI-1
[4] = test system: COLO 205
[5] = test system: HCT-116
[6] = test system: HOP-62
[7] = test system: Hs-578T
[8] = test system: IGROV-1
[9] = test system: MCF7
[10] = test system: MDA-MB-231
[11] = test system: NCI/ADR-RES
[12] = test system: OVCAR-3
[13] = test system: OVCAR-5
[14] = test system: RPMI-8226
[15] = test system: RXF 393
[16] = test system: SF-295
[17] = test system: SN12C
[18] = test system: UACC-257
[19] = test system: UO-31

Measured: GI50

CN(C)c1ccc(/C=C(\NC(=O)c2ccccc2)c2nn(C)c(=O)o2)cc1
inactive: [1] > 100 µM | [2] > 100 µM | [3] > 100 µM | [4] > 100 µM | [5] > 100 µM | [6] 18.1 µM | [7] 62.1 µM | [8] 58.6 µM | [9] > 100 µM | [10] > 100 µM | [11] 21.7 µM | [12] 43.9 µM | [13] > 100 µM | [14] 32 µM | [15] > 100 µM | [16] 47.5 µM | [17] > 100 µM | [18] 33 µM | [19] > 100 µM

O=C1C2C(C(=O)N1c1ccccc1)C1(c3ccccc3)CCC2(C(=O)c2ccccc2)O1 (stereo unspecified)
inactive: [1] > 10 µM | [2] > 10 µM | [3] > 10 µM | [4] > 10 µM | [5] > 10 µM | [6] > 10 µM | [7] > 10 µM | [8] > 10 µM | [9] > 10 µM | [10] > 10 µM | [11] > 10 µM | [12] > 10 µM | [13] > 10 µM | [14] > 10 µM | [15] > 10 µM | [16] > 10 µM | [17] > 10 µM | [18] > 10 µM | [19] > 10 µM

COC(=O)c1ccc(CCC2=CC(=O)C=CC2=O)cc1
inactive: [1] 18.7 µM | [2] 7.71 µM | [3] 4.11 µM | [4] 7.03 µM | [5] 7.8 µM | [6] 19.1 µM | [7] 24.8 µM | [8] 14.6 µM | [9] 6.59 µM | [10] 19.4 µM | [11] 20.7 µM | [12] 6.85 µM | [13] 18.2 µM | [14] 1.8 µM | [15] 12.5 µM | [16] 16.6 µM | [17] 24.5 µM | [18] 9.08 µM | [19] 7.36 µM

COC1CC(N)C(O)C(C)O1 (stereo unspecified)
inactive: [1] > 100 µM | [2] > 100 µM | [3] > 100 µM | [4] > 100 µM | [5] > 100 µM | [6] > 100 µM | [7] > 100 µM | [8] > 100 µM | [9] > 100 µM | [10] > 100 µM | [11] > 100 µM | [12] > 100 µM | [13] > 100 µM | [14] > 100 µM | [15] > 100 µM | [16] > 100 µM | [17] > 100 µM | [18] > 100 µM | [19] > 100 µM
